Measured values reported in patent publication US8703713B2, “Combination therapy for pancreatic cancer using an antigenic peptide and chemotherapeutic agent” (Onco Therapy Science, Inc., priority 2007, dated 2014).
Where a name gives a salt, the structure may show the parent alone. Peptide text beside a SMILES is read from it.

Legend:
[1] = test system: unresectable pancreatic cancer; conditions: cited from earlier work
[2] = Preliminary test administration of the peptide; assay type: in vivo, human; conditions: 10 mg of the peptide subcutaneously before first vaccine administration, monitoring 30 minutes, all cases
Method: For the purpose of avoiding unanticipated adverse events, such as anaphylactic shock, 10 mg of the peptide is subcutaneously administered as a preliminary test administration before the first vaccine administration to a site other than the site of the actual administration, and monitoring is carried out for 30 minutes. If a Grade 3 or higher local reaction or systemic adverse event could not be observed, the actual administration was carried out.

[3] = standard therapy against unresectable pancreatic cancer

Row | Compound | Evident tumor reducing effect (Objective Response) ([1]; gemcitabine alone, data obtained so far) [%] | Disease control rate (SD or higher) ([1]; gemcitabine alone, data obtained so far, listed as GEM alone) | median survival period [1, 3] [months] | one-year survival rate [1, 3] [%] | local adverse event and systemic adverse event [2]
1 | Nc1ccn([C@@H]2O[C@H](CO)[C@@H](O)C2(F)F)c(=O)n1 [gemcitabine, 2′-deoxy-2′,2′-difluorocytidine monohydrochloride (b-isomer)] | 10 | 45-48% | 5.7 | 18 | 
2 | CC[C@H](C)[C@H](NC(=O)[C@H](CCCNC(=N)N)NC(=O)[C@H](CC(N)=O)NC(=O)CNC(=O)[C@H](CC(=O)O)NC(=O)[C@@H]1CCCN1C(=O)[C@@H](NC(=O)[C@H](Cc1ccccc1)NC(=O)[C@@H](N)CCCNC(=N)N)C(C)C)C(=O)O [VEGFR2-169, RFVPDGNRI] (H-RFVPDGNRI-OH) |  |  |  |  | not observed in any of the cases
